From patent publication US9023851B2 (Merck Patent GmbH, priority 2010, dated 2015)

Assays:
Assay type in all cases: biochemical
[1] = target: T1, Syk (Homo sapiens, UniProt P43405); test: Syk enzyme assay (flash plate / Caliper mobility shift)
T1 construct: purchased BPS Bioscience, CA, USA
Description: The kinase assay is performed either as 384-well Flashplate assay (for e.g. Topcount measurement) or as 384-well Image-Flashplate assay (for LEADseeker measurement).
2.5 nM SYK, 400 nM Biotin-Aha-Aha-[…] and 10 μM ATP (spiked with 0.3 μCi 33P-ATP/well) are incubated in a total volume of 50 μl (60 mM Hepes, 10 mM MgCl2, 1.2 mM Dithiothreitol, 0.02% Brij35, 0.1% BSA, pH 7.5) with or without test compound for 1 hours at 30° C. The reaction is stopped with 25 μl 200 mM EDTA. After 30 Min at 30° C. the liquid is removed and each well washed thrice with 100 μl 0.9% sodium chloride solution. Non-specific reaction is determined in presence of 0.1 μM Staurosporine. Radioactivity is measured with Topcount (when using Flashplates) or with LEADseeker (when using Image-Flashplates) respectively. Results (e.g. IC50-values) are calculated with program tools provided by the IT-department (e.g. Symyx Assay Explorer, Genedata Screener).
(§1) Enzymatic Assays Using the Caliper LifeSciences Technology
(§2) The assays described here are performed on the Caliper Life Sciences LC3000 system This technology provides data on enzyme activity via measurement of the relative amounts of phosphorylated or unphosphorylated fluorescently labelled substrate peptide at the end of an enzymatic reaction. These different states of peptide are resolved by applying a potential difference across the sample. The presence of the charged phosphate group on the product (as opposed to the substrate) causes a different peptide mobility between the two peptides. This is visualized by excitation of the fluorescent label on the substrate and product peptides and represented as peaks within the analysis software.
(§3) In order to measure inhibitor activity of kinase inhibitors on this technology, a TTP Mosquito liquid handling instrument is used to place 0.25 ul of the appropriate concentration of inhibitor in 100% DMSO (for a dose response curve calculation) into each well of a 384-well plate. To this reaction components are added to a final volume of 25 ul. The table below indicates the sequences and concentrations for the assays described in this report. Standard components are 1 mM DTT (Sigma, D0632), 1 mM MgCl2 (Sigma, M1028), 100 mM HEPES pH 7.5 (Calbiochem, 391338), 0.015% Brij-35 (Sigma, B4184).
(§4) The reaction is incubated for 90 min at 25 C, and then stopped by the addition of 70 ul of Stop buffer (100 mM HEPES pH 7.5, 0.015% Brij-35, 10 mM EDTA (Sigma, E7889)).
(§5) The plate is read on a Caliper LC 3000 in an Off-Chip mobility shift assay format, on a 12-sipper chip. Unphosphorylated substrate and phosphorylated product peptide resolve as separate peaks allowing direct measurement of percentage of conversion of substrate to product. The percent conversion can be plotted against concentration of inhibitor to produce a sigmoidal dose response curve, from which an IC50 can be calculated using GeneData Condoseo or a similar product. Cellular activity assays

[2] = target: T2, ZAP-70 (Homo sapiens, UniProt P43403); test: Zap70 enzymatic assay (Caliper LifeSciences technology)
T2 construct: purchased BPS Bioscience, CA, USA
T2 sequence (P43403 1-619): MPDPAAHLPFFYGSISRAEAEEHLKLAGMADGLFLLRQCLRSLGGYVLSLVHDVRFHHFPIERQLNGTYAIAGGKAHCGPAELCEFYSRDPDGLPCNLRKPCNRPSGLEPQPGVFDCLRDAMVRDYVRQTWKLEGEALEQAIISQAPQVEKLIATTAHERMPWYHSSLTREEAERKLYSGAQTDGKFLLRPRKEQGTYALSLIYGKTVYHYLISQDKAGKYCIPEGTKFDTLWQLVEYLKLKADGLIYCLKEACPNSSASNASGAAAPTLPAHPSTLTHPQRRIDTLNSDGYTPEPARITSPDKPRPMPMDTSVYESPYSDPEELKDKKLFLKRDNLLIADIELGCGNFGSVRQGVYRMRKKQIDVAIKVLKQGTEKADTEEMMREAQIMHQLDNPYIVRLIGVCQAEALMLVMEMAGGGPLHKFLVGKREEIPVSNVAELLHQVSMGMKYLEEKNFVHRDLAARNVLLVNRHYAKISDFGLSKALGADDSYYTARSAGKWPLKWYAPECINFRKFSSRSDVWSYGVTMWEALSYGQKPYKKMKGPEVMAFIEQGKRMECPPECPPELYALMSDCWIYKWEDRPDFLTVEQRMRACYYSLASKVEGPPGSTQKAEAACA
Description: as §1, §2, §3, §4, §5

[3] = target: T3, KDR (Homo sapiens, UniProt P35968); test: KDR enzymatic assay (Caliper LifeSciences technology)
T3 construct: purchased BPS Bioscience, CA, USA
Description: as §1, §2, §3, §4, §5

T3 sequence (P35968 20-1356): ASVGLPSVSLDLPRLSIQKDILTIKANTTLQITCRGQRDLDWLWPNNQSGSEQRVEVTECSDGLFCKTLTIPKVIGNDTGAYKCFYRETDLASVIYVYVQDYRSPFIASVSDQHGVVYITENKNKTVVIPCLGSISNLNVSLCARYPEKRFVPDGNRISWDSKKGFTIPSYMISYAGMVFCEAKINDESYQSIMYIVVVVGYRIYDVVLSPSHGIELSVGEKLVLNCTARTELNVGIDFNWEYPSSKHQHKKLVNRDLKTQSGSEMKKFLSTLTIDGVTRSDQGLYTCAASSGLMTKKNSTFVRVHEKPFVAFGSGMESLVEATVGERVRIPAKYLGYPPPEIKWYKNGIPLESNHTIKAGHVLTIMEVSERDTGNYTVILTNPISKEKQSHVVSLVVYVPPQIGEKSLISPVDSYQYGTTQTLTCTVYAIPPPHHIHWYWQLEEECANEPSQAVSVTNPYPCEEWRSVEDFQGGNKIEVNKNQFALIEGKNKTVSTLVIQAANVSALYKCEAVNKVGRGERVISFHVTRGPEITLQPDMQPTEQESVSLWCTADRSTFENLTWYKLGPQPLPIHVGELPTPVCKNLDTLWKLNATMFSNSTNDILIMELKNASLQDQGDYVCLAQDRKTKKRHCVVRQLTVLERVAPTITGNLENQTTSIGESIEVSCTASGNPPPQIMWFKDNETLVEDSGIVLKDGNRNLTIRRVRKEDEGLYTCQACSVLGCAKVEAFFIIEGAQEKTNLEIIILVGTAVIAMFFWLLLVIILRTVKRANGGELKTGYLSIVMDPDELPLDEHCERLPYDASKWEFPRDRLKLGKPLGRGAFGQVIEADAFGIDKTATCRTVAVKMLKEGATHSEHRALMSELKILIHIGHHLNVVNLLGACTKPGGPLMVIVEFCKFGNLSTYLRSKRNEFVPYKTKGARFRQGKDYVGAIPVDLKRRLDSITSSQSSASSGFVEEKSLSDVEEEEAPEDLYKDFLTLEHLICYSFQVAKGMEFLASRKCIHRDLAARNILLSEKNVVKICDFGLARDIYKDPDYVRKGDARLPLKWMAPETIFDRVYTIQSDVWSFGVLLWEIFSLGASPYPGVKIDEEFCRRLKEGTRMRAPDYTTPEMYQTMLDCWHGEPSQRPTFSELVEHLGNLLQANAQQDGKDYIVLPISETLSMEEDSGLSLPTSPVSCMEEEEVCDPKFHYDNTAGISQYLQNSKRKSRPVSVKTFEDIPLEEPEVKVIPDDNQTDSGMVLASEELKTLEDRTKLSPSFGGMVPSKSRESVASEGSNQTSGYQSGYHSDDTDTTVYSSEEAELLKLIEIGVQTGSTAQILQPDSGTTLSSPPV

Row | SMILES | IC50 [1] [µM] | IC50 [2] [µM] | IC50 [3] [µM]
1 | COc1ccc(Nc2nc3c(-c4cnc5ccccc5c4)nccn3n2)cn1 [Example C262, (6-Methoxy-pyridin-3-yl)-(8-quinolin-3-yl-[1,2,4]triazolo[1,5-a]pyrazin-2-yl)-amine] | 0.3 to 3 |  | 
2 | FC(F)(F)c1cccc(Nc2nc3c(Nc4ccccc4)nccn3n2)c1 [Example C88, N^8-Phenyl-N^2-(3-trifluoromethyl-phenyl)-[1,2,4]triazolo[1,5-a]pyrazine-2,8-diamine] |  | 3 to 50 | 
3 | COc1cc(Nc2nc3c(-c4cnc5ccccc5c4)nccn3n2)cc(OC)c1 [Example C260, (3,5-Dimethoxy-phenyl)-(8-quinolin-3-yl-[1,2,4]triazolo[1,5-a]pyrazin-2-yl)-amine] | < 0.3 |  | 
4 | c1ccc(Nc2nc3c(-c4ccccc4)nccn3n2)cc1 [Example C10, Phenyl-(8-phenyl-[1,2,4]triazolo[1,5-a]pyrazin-2-yl)-amine] | 0.3 to 3 |  | 0.3 to 3
5 | Cc1cc(C)cc(Nc2nc3c(NC4CCCCC4N)nccn3n2)c1 (centres unmarked) [Example C56, N^8-(2-Amino-cyclohexyl)-N^2-(3,5-dimethyl-phenyl)-[1,2,4]triazolo[1,5-a]pyrazine-2,8-diamine] | 3 to 50 |  | 3 to 50
6 | Clc1nccn2nc(Nc3ccc4cnn(Cc5ccccc5)c4c3)nc12 [Example B9, (1-Benzyl-1H-indazol-6-yl)-(8-chloro-[1,2,4]triazolo[1,5-a]pyrazin-2-yl)-amine] | 3 to 50 |  | 
7 | COc1cc(Nc2nc3c(NC4CCCCC4N)nccn3n2)cc(OC)c1 (centres unmarked) [Example C54, N^8-(2-Amino-cyclohexyl)-N^2-(3,5-dimethoxy-phenyl)-[1,2,4]triazolo[1,5-a]pyrazine-2,8-diamine] | 3 to 50 |  | 
8 | COCCCNc1nccn2nc(Nc3cc(C)cc(C)c3)nc12 [Example C37, N^2-(3,5-Dimethyl-phenyl)-N^8-(3-methoxy-propyl)-[1,2,4]triazolo[1,5-a]pyrazine-2,8-diamine] | 3 to 50 |  | 3 to 50
9 | Cc1cccc(Nc2nc3c(NCCN)nccn3n2)c1 [Example C45, N^8-(2-Amino-ethyl)-N^2-m-tolyl-[1,2,4]triazolo[1,5-a]pyrazine-2,8-diamine] | 3 to 50 |  | 3 to 50
10 | COCCCNc1nccn2nc(Nc3ccccc3)nc12 [Example C53, N^8-(3-Methoxy-propyl)-N^2-phenyl-[1,2,4]triazolo[1,5-a]pyrazine-2,8-diamine] | 3 to 50 |  | 3 to 50
11 | Cc1cccc(Nc2nc3c(Nc4cccc(C(F)(F)F)c4)nccn3n2)c1 [Example C73, N^2-m-Tolyl-N^8-(3-trifluoromethyl-phenyl)-[1,2,4]triazolo[1,5-a]pyrazine-2,8-diamine] | 3 to 50 |  | 
12 | FC(F)(F)c1cccc(Nc2nc3c(-c4ccc(N5CCOCC5)cc4)nccn3n2)c1 [Example C12, [8-(4-Morpholin-4-yl-phenyl)-[1,2,4]triazolo[1,5-a]pyrazin-2-yl]-(3-trifluoromethyl-phenyl)-amine] | 3 to 50 |  | 
13 | Cc1cccc(Nc2nccn3nc(Nc4ccc5cnn(Cc6ccccc6)c5c4)nc23)c1 [Example C84, N^2-(1-Benzyl-1H-indazol-6-yl)-N^8-m-tolyl-[1,2,4]triazolo[1,5-a]pyrazine-2,8-diamine] |  | 3 to 50 | 
14 | FC(F)(F)c1cccc(Nc2nc3c(-c4ccccc4)nccn3n2)c1 [Example C9, (8-Phenyl-[1,2,4]triazolo[1,5-a]pyrazin-2-yl)-(3-trifluoromethyl-phenyl)-amine] | 0.3 to 3 |  | 3 to 50
15 | Cn1ccnc1Sc1ccc(Nc2nccn3nc(Nc4cccc(C(F)(F)F)c4)nc23)cc1Cl [Example C68, N^8-[3-Chloro-4-(1-methyl-1H-imidazol-2-ylsulfanyl)-phenyl]-N^2-(3-trifluoromethyl-phenyl)-[1,2,4]triazolo[1,5-a]pyrazine-2,8-diamine] | 3 to 50 |  | 
16 | O=C1Nc2cc(Nc3nc4c(Cl)nccn4n3)ccc2OC1(F)F [Example B7, 6-(8-Chloro-[1,2,4]triazolo[1,5-a]pyrazin-2-ylamino)-2,2-difluoro-4H-benzo[1,4]oxazin-3-one] | 0.3 to 3 |  | 
17 | NCCNc1nccn2nc(Nc3ccccc3)nc12 [Example C49, N^8-(2-Amino-ethyl)-N^2-phenyl-[1,2,4]triazolo[1,5-a]pyrazine-2,8-diamine] | 3 to 50 |  | 3 to 50
18 | Cc1cccc(Nc2nc3c(NC4CCCCC4N)nccn3n2)c1 (centres unmarked) [Example C57, N^8-(2-Amino-cyclohexyl)-N^2-m-tolyl-[1,2,4]triazolo[1,5-a]pyrazine-2,8-diamine] | 3 to 50 |  | 3 to 50
19 | COc1ccc(Nc2nc3c(-c4cccc(CN)c4)nccn3n2)cn1 [Example C254, [8-(3-Aminomethyl-phenyl)-[1,2,4]triazolo[1,5-a]pyrazin-2-yl]-(6-methoxy-pyridin-3-yl)-amine] | 0.3 to 3 |  | 
20 | c1ccc(Cn2ncc3ccc(Nc4nccn5nc(Nc6ccccc6)nc45)cc32)cc1 [Example C75, N^8-(1-Benzyl-1H-indazol-6-yl)-N^2-phenyl-[1,2,4]triazolo[1,5-a]pyrazine-2,8-diamine] |  | 3 to 50 | 
21 | COc1cc(Nc2nccn3nc(Nc4ccc5cnn(Cc6ccccc6)c5c4)nc23)cc(OC)c1 [Example C82, N^2-(1-Benzyl-1H-indazol-6-yl)-N^8-(3,5-dimethoxy-phenyl)-[1,2,4]triazolo[1,5-a]pyrazine-2,8-diamine] |  | 3 to 50 | 
22 | COc1cc(OC)cc(-c2nccn3nc(Nc4cc(C)cc(C)c4)nc23)c1 [Example C15, [8-(3,5-Dimethoxy-phenyl)-[1,2,4]triazolo[1,5-a]pyrazin-2-yl]-(3,5-dimethyl-phenyl)-amine] | 0.3 to 3 |  | 3 to 50
23 | Cc1c(N)cccc1-c1nccn2nc(Nc3ccc(N4CCOCC4)cc3)nc12 [Example C293, [8-(3-Amino-2-methyl-phenyl)-[1,2,4]triazolo[1,5-a]pyrazin-2-yl]-(4-morpholin-4-yl-phenyl)-amine] | 0.3 to 3 |  | 
24 | COc1cc(OC)cc(-c2nccn3nc(Nc4cccc(C)c4)nc23)c1 [Example C17, [8-(3,5-Dimethoxy-phenyl)-[1,2,4]triazolo[1,5-a]pyrazin-2-yl]-m-tolyl-amine] | 0.3 to 3 |  | 3 to 50
25 | Cc1cc(C)cc(Nc2nc3c(-c4ccccc4)nccn3n2)c1 [Example C7, (3,5-Dimethyl-phenyl)-(8-phenyl-[1,2,4]triazolo[1,5-a]pyrazin-2-yl)-amine] | 0.3 to 3 |  | 
26 | COc1cc(Nc2nc3c(-c4cc(OC)cc(OC)c4)nccn3n2)cc(OC)c1 [Example C16, (3,5-Dimethoxy-phenyl)-[8-(3,5-dimethoxy-phenyl)-[1,2,4]triazolo[1,5-a]pyrazin-2-yl]-amine] | < 0.3 |  | 
27 | Cc1cccc(Nc2nc3c(Nc4ccc5c(c4)NC(=O)C(F)(F)O5)nccn3n2)c1 [Example C71, 2,2-Difluoro-6-(2-m-tolylamino-[1,2,4]triazolo[1,5-a]pyrazin-8-ylamino)-4H-benzo[1,4]oxazin-3-one] | 3 to 50 |  | 
28 | COc1ccc(Nc2nc3c(-c4cccc(NS(C)(=O)=O)c4)nccn3n2)cn1 [Example C274, N-{3-[2-(6-Methoxy-pyridin-3-ylamino)-[1,2,4]triazolo[1,5-a]pyrazin-8-yl]-phenyl}-methanesulfonamide] | 0.3 to 3 |  | 
